From PubChem BioAssay AID1919000 (Molecular Pharmacology Branch, DTP, NCI, 2023)

Tested on: 653999-131-R-J2-PDC complex spheroids, growth % test/control
Assay: Anticancer human tumor 653999-131-R-J2-PDC patient-derived lung adenocarcinoma cell line growth inhibition [AhR]
Conditions: for IC50: curve of first compound; for viability, T/C: stronger effect = lower value
Source text: Multicellular complex tumor spheroid response to aryl hydrocarbon receptor antagonists in combination with a variety of drugs and investigational agents in selected tumor cell lines
The current study was undertaken to assess response to aryl hydrocarbon receptor antagonists in combination with standard-of-care drugs and investigational agents in solid tumor complex spheroid models. Complex spheroids include a stromal component modeled by human endothelial cells (HUVEC) and fibroblasts modeled by human mesenchymal stem cells (MSCs). The concentration ranges selected for each drug and investigational agent were based upon clinically achievable concentrations if the clinical Cmax of the agent was known.
Compounds. The drugs and investigational agents: BAY 2416964 (NSC825713), GNF351 (NSC835774), CH-223191 (NSC835775), CPI-455 (NSC825282), aza-TdCyd (NSC777586), decitabine (NSC127716), belinostat (NSC758774), entinostat (NSC756642), pevonedistat (NSC761192), tazemetostat (NSC777109), talazoparib (NSC765396), olaparib (NSC753686), selinexor (NSC780203), nedisertib (M3814, NSC802822), bortezomib (NSC756655), venetoclax (NSC766270), doxorubicin (NSC123127), elimusertib (BAY189344, NSC800525), ceralasertib (AZD6738, NSC777638), TAK-243 (NSC785004), alisertib (NSC759677), etoposide (NSC141540), topotecan (NSC609699), eribulin (NSC707389), gemcitabine (NSC613327), carboplatin (NSC241240), cisplatin (NSC119875), and SN-38 (NSC673596) were obtained from the National Cancer Institute (NCI) Developmental Therapeutics Program Chemical Repository (32). The FDA-approved anticancer drug set is available from the Developmental Therapeutics Program at https://dtp.cancer.gov/organization/dscb/obtaining/available plates.htm. […] The stock solutions were prepared in dimethyl sulfoxide (DMSO, Sigma-Aldrich, St. Louis, MO, cat. D2650), except for the platinum compounds which were prepared in saline (Quality Biological, Gaithersburg, MD, cat. 114-055-101), at 800-fold the tested concentration and stored at -70 degrees C prior to their use. All drugs and investigational agents were tested over a range starting from a high concentration at or near the clinical Cmax and decreasing in half-log increments. If the clinical Cmax for an agent had not been determined, the highest concentration tested was 10 microM (Table 1).
Cell Culture. All cells were maintained in an incubator at 37 degrees C and 5% CO2 with 95% humidity. The PDC lines were cultured according to standard operating procedures established by the NCI PDMR (https://pdmr.cancer.gov). Briefly, all PDCs were thawed and cultured in Matrigel-coated flasks prepared with a working solution of 1X Ham's F-12 nutrient mix, without supplementation (Invitrogen, Waltham, MA, cat. 11765054), 100 U/mL penicillin-streptomycin (Invitrogen, cat. 15140122), and 2.5% Matrigel (Corning Inc., Corning, NY, cat. 354248) for the first three passages. All PDCs were cultured in complete DMEM/F-12 media containing advanced DMEM/F-12 (Invitrogen, cat. 12634028), 4.9% defined fetal bovine serum, heat inactivated (HyClone Laboratories Inc., Logan, UT, cat. SH30070.03HI), 389 ng/mL hydrocortisone (Sigma-Aldrich, cat. H4001), 9.7 ng/mL human EGF recombinant protein (Invitrogen, cat. PHG0313), 23.4 microg/mL adenine (Sigma-Aldrich, cat. A2786), 97.3 U/mL penicillin-streptomycin (Invitrogen, cat. 15140122), 1.9 mM L-glutamine (Invitrogen, cat. 25030081), and 9.7 microM Y-27632 dihydrochloride (Tocris Bioscience, Bristol, United Kingdom, cat. 1254). The PDCs were cultured in complete DMEM/F12 media without 10 microM Y-27632 dihydrochloride for at least two passages prior to the screen. The established cell lines NCI-H1341 and […] were cultured in DMEM/F-12, HEPES (Invitrogen, cat. 11330032), 5% defined fetal bovine serum (HyClone Laboratories Inc., cat. SH30070.03), ITS premix universal culture supplement [insulin (5 microg/mL), transferrin (5 microg/mL), and selenious acid (5 ng/mL)] […]

[1] = second compound 0.1 µM, first compound 0.0316 µM
[2] = second compound 0.1 µM, first compound 0.1 µM
[3] = second compound 0.1 µM, first compound 0.316 µM
[4] = second compound 0.1 µM, first compound 1 µM
[5] = second compound 0.1 µM, first compound 3.16 µM
[6] = second compound 0.1 µM, first compound 10 µM
[7] = second compound 0.316 µM, first compound 0.0316 µM
[8] = second compound 0.316 µM, first compound 0.1 µM
[9] = second compound 0.316 µM, first compound 0.316 µM
[10] = second compound 0.316 µM, first compound 1 µM
[11] = second compound 0.316 µM, first compound 3.16 µM
[12] = second compound 0.316 µM, first compound 10 µM
[13] = second compound 1 µM, first compound 0.0316 µM
[14] = second compound 1 µM, first compound 0.1 µM
[15] = second compound 1 µM, first compound 0.316 µM
[16] = second compound 1 µM, first compound 1 µM
[17] = second compound 1 µM, first compound 3.16 µM
[18] = second compound 1 µM, first compound 10 µM
[19] = second compound 3.16 µM, first compound 0.0316 µM
[20] = second compound 3.16 µM, first compound 0.1 µM
[21] = second compound 3.16 µM, first compound 0.316 µM
[22] = second compound 3.16 µM, first compound 1 µM
[23] = second compound 3.16 µM, first compound 3.16 µM
[24] = second compound 3.16 µM, first compound 10 µM
[25] = second compound 10 µM, first compound 0.0316 µM
[26] = second compound 10 µM, first compound 0.1 µM
[27] = second compound 10 µM, first compound 0.316 µM
[28] = second compound 10 µM, first compound 1 µM
[29] = second compound 10 µM, first compound 3.16 µM
[30] = second compound 10 µM, first compound 10 µM
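Also: spheroids exposed to agents for seven days.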

SMILES	IC50 (second compound 0.1 µM) [nM]	IC50 (second compound 0.316 µM) [nM]	IC50 (second compound 1 µM) [nM]	IC50 (second compound 3.16 µM) [nM]	IC50 (second compound 10 µM) [nM]	viability, T/C [1] [%]	viability, T/C [2] [%]	viability, T/C [3] [%]	viability, T/C [4] [%]	viability, T/C [5] [%]	viability, T/C [6] [%]	viability, T/C [7] [%]	viability, T/C [8] [%]	viability, T/C [9] [%]	viability, T/C [10] [%]	viability, T/C [11] [%]	viability, T/C [12] [%]	viability, T/C [13] [%]	viability, T/C [14] [%]	viability, T/C [15] [%]	further results
COc1cc(Nc2ncc3c(n2)-c2ccc(Cl)cc2C(c2c(F)cccc2OC)=NC3)ccc1C(=O)O + CC(CO)NC(=O)c1cc(-c2ccc(Cl)cc2)nn(-c2cnn(C)c2)c1=O	> 10000	> 10000	> 10000	> 10000	> 10000	95	80.9	77.6	76.8	66	64	92.6	73.5	74.8	62.4	70.8	65.2	98.2	76.1	83.9	viability, T/C [16]: 70.8%; viability, T/C [17]: 77.8%; viability, T/C [18]: 68.5%; viability, T/C [19]: 94.2%; viability, T/C [20]: 83%; viability, T/C [21]: 79.1%; viability, T/C [22]: 74.7%; viability, T/C [23]: 77.5%; viability, T/C [24]: 77.4%; viability, T/C [25]: 92.8%; viability, T/C [26]: 81%; viability, T/C [27]: 78.4%; viability, T/C [28]: 74%; viability, T/C [29]: 67.9%; viability, T/C [30]: 80.4%
Nc1ccccc1NC(=O)c1ccc(CNC(=O)OCc2cccnc2)cc1 + Cc1ccccc1N=Nc1ccc(NC(=O)c2ccnn2C)c(C)c1	2500	3460	2270	1900	3480	91.9	83	79.2	73.7	43.4	12.3	91.4	83.5	69	64.9	62.3	14.1	83.8	85.1	70.4	viability, T/C [16]: 58.5%; viability, T/C [17]: 50.4%; viability, T/C [18]: 13.9%; viability, T/C [19]: 89.3%; viability, T/C [20]: 84.7%; viability, T/C [21]: 70.2%; viability, T/C [22]: 54.4%; viability, T/C [23]: 50.5%; viability, T/C [24]: 13.3%; viability, T/C [25]: 86.4%; viability, T/C [26]: 81.6%; viability, T/C [27]: 71.4%; viability, T/C [28]: 59.6%; viability, T/C [29]: 63.1%; viability, T/C [30]: 13.4%
Nc1ccn(C2OC(CO)C(O)C2(F)F)c(=O)n1 (stereo not given) + Cc1ccccc1N=Nc1ccc(NC(=O)c2ccnn2C)c(C)c1	532	371	940	454	2960	64.2	65	49.3	44.9	42.9	34.2	70.6	60.9	52.8	39.8	43.5	36.8	69.2	66.4	60.5	viability, T/C [16]: 44.4%; viability, T/C [17]: 43.5%; viability, T/C [18]: 36%; viability, T/C [19]: 72.5%; viability, T/C [20]: 62.4%; viability, T/C [21]: 51.5%; viability, T/C [22]: 44.9%; viability, T/C [23]: 42.1%; viability, T/C [24]: 38.7%; viability, T/C [25]: 66.8%; viability, T/C [26]: 65.5%; viability, T/C [27]: 65.2%; viability, T/C [28]: 50.3%; viability, T/C [29]: 46.1%; viability, T/C [30]: 48.5%
CC1(C)CCC(CN2CCN(c3ccc(C(=O)NS(=O)(=O)c4ccc(NCC5CCOCC5)c([N+](=O)[O-])c4)c(Oc4cnc5[nH]ccc5c4)c3)CC2)=C(c2ccc(Cl)cc2)C1 + Cc1cncc(-c2nc(NCCc3c[nH]c4ccccc34)c3ncn(C(C)C)c3n2)c1	> 10000	> 10000	> 10000	> 10000	> 10000	92.8	93.8	89	101	94.2	85.8	97.8	90.7	94.8	97.8	116	83	103	108	109	viability, T/C [16]: 102%; viability, T/C [17]: 116%; viability, T/C [18]: 105%; viability, T/C [19]: 105%; viability, T/C [20]: 105%; viability, T/C [21]: 109%; viability, T/C [22]: 115%; viability, T/C [23]: 104%; viability, T/C [24]: 91.8%; viability, T/C [25]: 59.4%; viability, T/C [26]: 61.9%; viability, T/C [27]: 59.5%; viability, T/C [28]: 71.3%; viability, T/C [29]: 74.1%; viability, T/C [30]: 62.5%
